Experimental data as given in article PMC9500072, “Topical application of an irreversible small molecule inhibitor of lysyl oxidases ameliorates skin scarring and fibrosis” (Nature Communications, 2022).
“And” between values parts separate entries of the source, which are not always exact repeats. Equal values may be shown once.

Assays:
[1] = system: primary human dermal fibroblasts; assay: qPCR COL1A1 and LOX gene expression; type: cell-based; design: key to qPCR COLIAI / qPCRLOX: relative expression by 2^−ΔΔCt, GAPDH/PGK1 housekeeping
Experimental: Changes in COL1A1 and LOX gene expression in PXS-4787 treated cells were done using primary human dermal fibroblasts (50,000) seeded in a 6-well plate under Scar-in-a-jar media. The cells were incubated with 0 µM, 1 µM, and 10 µM PXS-4787 treatment for 48 h. mRNA was extracted using RNeasy mini kit® according to the manufacturer’s protocol (Qiagen Gmbh). The total concentration and purity of RNA were determined using a NAnodrop 2000C (Thermo Scientific, USA). For reverse transcription, mRNA was converted to cDNA using QuantiTect Reverse Transcription kit (Qiagen; Catalog no. 205311) according to the manufacturer’s protocol. Quantitative real-time RT-PCR was conducted using SYBR Green Master Mix (Qiagen; Catalog no. 204143) and Rotor gene Q thermocycler (Qiagen). The reactions were carried out in triplicate in 20 µl total volume containing 1 µl cDNA and 2 µl primers. The QuantiTect Primer assay for COL1A1 (Catalog no. QT00037793), LOX (Catalog no. QT00017311) were used. GAPDH (Catalog no. QT00079247) and PGK1 (Catalog no. 249900) were used as a housekeeping gene. The data were analyzed using Rotor geneQ software and the relative gene expression was calculated using the 2−^(∆∆c (t)) method. Three biological samples were used for each condition.

[2] = target: Adrenergic α1B (Rattus norvegicus, UniProt P15823); assay: Eurofins panel 203200; type: binding
Chain of Adrenergic α1B (P15823 whole entry): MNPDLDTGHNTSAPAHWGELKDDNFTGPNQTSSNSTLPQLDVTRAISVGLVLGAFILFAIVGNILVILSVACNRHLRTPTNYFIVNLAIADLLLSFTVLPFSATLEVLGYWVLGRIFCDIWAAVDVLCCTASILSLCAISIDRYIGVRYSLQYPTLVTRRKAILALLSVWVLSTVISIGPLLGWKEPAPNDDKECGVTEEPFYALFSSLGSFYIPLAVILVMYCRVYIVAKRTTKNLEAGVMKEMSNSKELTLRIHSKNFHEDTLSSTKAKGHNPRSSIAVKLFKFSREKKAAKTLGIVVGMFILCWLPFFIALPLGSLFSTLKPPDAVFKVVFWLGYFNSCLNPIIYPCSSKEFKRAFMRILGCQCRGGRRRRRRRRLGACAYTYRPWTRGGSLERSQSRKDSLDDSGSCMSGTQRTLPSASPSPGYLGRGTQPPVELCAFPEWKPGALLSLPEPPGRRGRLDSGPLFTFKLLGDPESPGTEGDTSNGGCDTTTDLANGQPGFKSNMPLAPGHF

[3] = target: GABAB1A (Homo sapiens, UniProt Q9UBS5); assay: Eurofins panel 228610; type: binding
Chain of GABAB1A (Q9UBS5 15-961 limits assumed): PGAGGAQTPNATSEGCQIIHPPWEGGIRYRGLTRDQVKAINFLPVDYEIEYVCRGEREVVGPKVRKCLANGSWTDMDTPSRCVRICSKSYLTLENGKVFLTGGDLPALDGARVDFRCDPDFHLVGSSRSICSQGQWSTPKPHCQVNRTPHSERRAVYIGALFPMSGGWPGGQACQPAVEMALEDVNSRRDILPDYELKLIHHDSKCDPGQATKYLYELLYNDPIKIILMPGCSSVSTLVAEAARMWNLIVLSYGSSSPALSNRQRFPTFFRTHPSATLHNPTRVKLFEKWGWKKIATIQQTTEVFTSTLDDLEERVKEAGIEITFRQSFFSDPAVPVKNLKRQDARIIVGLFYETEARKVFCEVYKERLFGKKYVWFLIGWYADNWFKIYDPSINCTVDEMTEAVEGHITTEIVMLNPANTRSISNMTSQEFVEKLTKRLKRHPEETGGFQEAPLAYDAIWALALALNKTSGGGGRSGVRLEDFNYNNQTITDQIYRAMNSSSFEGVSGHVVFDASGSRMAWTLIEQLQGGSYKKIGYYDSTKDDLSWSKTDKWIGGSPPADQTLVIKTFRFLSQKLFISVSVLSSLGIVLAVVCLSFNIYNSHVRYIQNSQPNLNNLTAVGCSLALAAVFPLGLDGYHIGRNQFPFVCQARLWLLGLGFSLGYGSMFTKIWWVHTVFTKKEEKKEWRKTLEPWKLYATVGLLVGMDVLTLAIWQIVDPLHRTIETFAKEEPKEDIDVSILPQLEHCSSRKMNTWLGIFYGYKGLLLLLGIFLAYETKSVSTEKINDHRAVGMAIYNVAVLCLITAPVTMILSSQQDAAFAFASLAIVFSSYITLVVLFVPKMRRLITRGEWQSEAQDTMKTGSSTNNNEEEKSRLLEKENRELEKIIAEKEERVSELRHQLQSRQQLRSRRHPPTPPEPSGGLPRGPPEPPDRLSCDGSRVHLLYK

[4] = target: Potassium Channel [KATP] (Cricetus cricetus, UniProt Q09427); assay: Eurofins panel 265600; type: binding, ham
Chain of Potassium Channel [KATP] (Q09427 whole entry): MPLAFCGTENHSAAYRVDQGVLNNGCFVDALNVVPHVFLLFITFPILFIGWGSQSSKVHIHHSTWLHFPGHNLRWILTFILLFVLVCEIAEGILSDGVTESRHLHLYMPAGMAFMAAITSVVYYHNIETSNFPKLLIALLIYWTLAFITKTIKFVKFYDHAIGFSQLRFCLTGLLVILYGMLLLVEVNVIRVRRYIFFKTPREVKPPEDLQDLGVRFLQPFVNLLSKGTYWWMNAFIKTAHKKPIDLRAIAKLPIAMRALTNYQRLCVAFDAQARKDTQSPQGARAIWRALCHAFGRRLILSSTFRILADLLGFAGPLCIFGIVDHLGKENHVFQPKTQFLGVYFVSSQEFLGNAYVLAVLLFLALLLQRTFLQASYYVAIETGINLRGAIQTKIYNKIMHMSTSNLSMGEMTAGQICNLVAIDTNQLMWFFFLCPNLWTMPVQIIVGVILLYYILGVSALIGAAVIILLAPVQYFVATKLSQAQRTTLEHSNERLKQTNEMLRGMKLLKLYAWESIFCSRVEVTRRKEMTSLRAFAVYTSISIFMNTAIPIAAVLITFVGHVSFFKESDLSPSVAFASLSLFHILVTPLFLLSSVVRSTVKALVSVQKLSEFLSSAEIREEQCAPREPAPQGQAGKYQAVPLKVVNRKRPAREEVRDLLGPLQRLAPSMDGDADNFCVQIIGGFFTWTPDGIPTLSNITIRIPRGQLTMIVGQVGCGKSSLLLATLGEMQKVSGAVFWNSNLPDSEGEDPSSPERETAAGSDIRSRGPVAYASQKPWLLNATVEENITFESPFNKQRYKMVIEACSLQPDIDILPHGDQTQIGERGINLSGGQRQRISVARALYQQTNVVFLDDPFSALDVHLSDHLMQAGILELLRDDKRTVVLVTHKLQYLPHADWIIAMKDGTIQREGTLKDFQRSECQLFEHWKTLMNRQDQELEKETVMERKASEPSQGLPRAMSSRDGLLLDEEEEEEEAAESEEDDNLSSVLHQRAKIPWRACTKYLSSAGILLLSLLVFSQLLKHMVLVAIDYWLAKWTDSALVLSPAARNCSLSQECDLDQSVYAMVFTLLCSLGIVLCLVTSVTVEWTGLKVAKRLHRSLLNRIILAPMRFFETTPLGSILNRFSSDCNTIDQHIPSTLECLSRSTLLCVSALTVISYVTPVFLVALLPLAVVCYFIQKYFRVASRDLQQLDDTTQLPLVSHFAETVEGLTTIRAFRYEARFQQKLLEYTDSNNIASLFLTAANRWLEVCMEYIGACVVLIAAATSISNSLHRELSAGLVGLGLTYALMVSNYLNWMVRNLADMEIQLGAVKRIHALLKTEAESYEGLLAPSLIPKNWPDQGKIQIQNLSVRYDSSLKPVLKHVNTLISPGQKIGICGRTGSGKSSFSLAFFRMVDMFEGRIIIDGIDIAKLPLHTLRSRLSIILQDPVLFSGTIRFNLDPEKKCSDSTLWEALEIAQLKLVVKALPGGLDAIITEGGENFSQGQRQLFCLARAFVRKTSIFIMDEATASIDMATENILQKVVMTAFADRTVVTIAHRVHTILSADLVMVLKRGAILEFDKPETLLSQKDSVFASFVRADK
Description: PXS-4787 competes with a model substrate (putrescine) for the LOX binding site (Fig. 2d). The allylamine of PXS-4787 interacts with the co-factor of the enzyme and elicits mechanism-based inhibition (Fig. 2e). Through careful optimization, and in contrast to BAPN, PXS-4787 selectivity targets lysyl oxidases and is neither an inhibitor of, nor a substrate for, related oxidases (Fig. 2f, g and Supplementary Table S1). Furthermore, PXS-4787 was clean when profiled in a broad panel of macromolecular targets using enzyme and radioligand binding assays (LeadProfilingScreen, Eurofins CEREP Panlabs, 68 assays, test concentration 10 µM; Supplementary Data S1).

[5] = target: Neuropeptide Y Y1 (Homo sapiens, UniProt P25929); assay: Eurofins panel 257010; type: binding
Chain of Neuropeptide Y Y1 (P25929 whole entry): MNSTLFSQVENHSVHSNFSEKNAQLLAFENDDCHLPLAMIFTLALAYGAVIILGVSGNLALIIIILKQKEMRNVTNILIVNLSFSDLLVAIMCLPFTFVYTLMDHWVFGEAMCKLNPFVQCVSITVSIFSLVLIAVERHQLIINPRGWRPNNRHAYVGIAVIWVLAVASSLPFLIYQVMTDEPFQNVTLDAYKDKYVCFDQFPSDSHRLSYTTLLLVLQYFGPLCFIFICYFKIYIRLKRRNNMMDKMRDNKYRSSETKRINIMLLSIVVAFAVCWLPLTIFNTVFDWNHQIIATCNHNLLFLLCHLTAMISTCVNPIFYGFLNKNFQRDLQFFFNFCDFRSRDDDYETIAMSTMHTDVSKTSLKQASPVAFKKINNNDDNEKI

[6] = system: primary human fibroblasts; assay: Collagen crosslinking in vitro, scar-in-a-jar, LC-MS/MS; type: cell-based; design: PYD: unit not given beside the values; HLNL / DHLNL / DPD: unit not given here; conditions: 11 days, biological replicates
Experimental: To determine the effects of PXS-4787 on collagen cross-link formation, primary human fibroblasts from six different participants (six biological replicates) were cultured for 11 days using ‘scar-in-a-jar’ conditions in the presence of 0, 1, and 10 µM of inhibitor. Liquid chromatography with tandem mass spectrometry (LC-MS/MS) was used to measure hydroxyproline and cross-link concentrations in these samples. Hydroxyproline concentration provides a close estimate of collagen concentration as it is present in high concentrations in collagens and is critical to fibril formation.
Primary scar fibroblasts were seeded in a complete media at density 75 × 10^4 cells per well in a T-25 tissue culture flask at 37 °C and 5% CO2. After 16 h the complete media was replaced by the stimulated media ([…] Ficoll 70 and (25 mg/ mL) Ficoll 400, 5 ng/mL TGF-β1, 0.5% FBS, […] L-ascorbic acid-2-phosphate) in DMEM-Glutamax™ supplemented with 0.5% FBS and 1% Penicillin/ Streptomycin and 1 and 10 µM concentrations of PXS-4787 for 11 days to allow time for sufficient crosslinking of extracellular collagen. After 11 days, the media was aspirated and cells were trypsinized for 30 min and reduced with 12 mg/mL Sodium Borohydride in 20 mM Sodium Hydroxide solution followed and incubated for 30 min at room temperature. The pH of the solution was made acidic using 50 µL of neat acetic acid. The solution was centrifuged at 20,000g for 15 min at 4 °C followed by three washes with MilliQ water and samples processed for crosslinking analysis.
Cell pellets or isolated tissue samples were completely hydrolyzed in 1.5 mL 6 M hydrochloric acid for 24 h at 105 °C. After complete hydrolysis, samples were dried using a vacuum dryer and reconstituted using 200 µL MilliQ water. The sample clean-up was performed using solid-phase extraction method which uses C18 and SCX solid-phase extraction cartridges for sample purification. The samples were run on UPLC-MS-MS (Mass Spectrometer: Thermo Scientific TSQ Endura Triple quadrupole, UPLC: Thermo Scientific Dionex UltiMate 3000) using Agilent RRHD SB-C18,2.1x50mm,1.8um analytical column and solvent A: 10 mM ammonium formate, 0.1% formic acid, 0.1% HFBA in H2O and solvent B: 10 mM ammonium formate, 0.1% formic acid, 0.1% HFBA in MeOH and analyzed as previously described. Limits of detection are listed in Supplementary Table S4.

[7] = target: Neuropeptide Y Y2 (Homo sapiens, UniProt P49146); assay: Eurofins panel 257110; type: binding
Chain of Neuropeptide Y Y2 (P49146 whole entry): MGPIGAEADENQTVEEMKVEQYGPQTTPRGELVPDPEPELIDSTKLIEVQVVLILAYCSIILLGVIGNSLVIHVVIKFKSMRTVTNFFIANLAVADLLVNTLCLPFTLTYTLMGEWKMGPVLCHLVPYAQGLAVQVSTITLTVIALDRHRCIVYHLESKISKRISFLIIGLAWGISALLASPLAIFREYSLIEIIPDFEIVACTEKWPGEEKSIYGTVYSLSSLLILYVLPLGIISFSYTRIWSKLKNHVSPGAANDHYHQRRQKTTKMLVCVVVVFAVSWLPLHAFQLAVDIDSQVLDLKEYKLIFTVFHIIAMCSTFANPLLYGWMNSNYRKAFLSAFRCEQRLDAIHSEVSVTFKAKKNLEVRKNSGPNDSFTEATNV

[8] = target: Monoamine Oxidase MAO-A (Homo sapiens, UniProt P21397); assay: Eurofins panel 140010; type: biochemical
Chain of Monoamine Oxidase MAO-A (P21397 whole entry): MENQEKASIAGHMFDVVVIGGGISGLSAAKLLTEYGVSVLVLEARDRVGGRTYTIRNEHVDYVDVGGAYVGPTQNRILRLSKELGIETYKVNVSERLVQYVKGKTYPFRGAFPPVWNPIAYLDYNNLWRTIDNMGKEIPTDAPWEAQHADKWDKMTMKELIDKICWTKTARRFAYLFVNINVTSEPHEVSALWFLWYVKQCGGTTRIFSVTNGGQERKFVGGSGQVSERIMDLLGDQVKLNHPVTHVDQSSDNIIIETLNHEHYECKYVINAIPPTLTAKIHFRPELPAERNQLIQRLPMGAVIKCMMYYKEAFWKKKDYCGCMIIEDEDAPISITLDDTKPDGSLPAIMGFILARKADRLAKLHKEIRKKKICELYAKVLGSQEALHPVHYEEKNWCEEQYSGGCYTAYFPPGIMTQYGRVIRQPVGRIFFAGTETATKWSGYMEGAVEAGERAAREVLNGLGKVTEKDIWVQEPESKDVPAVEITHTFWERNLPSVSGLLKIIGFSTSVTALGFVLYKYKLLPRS

## NC/C=C(\F)CS(=O)(=O)c1ccccc1 [PXS-4787]
[1]; 0, 1, 10 µM, 48 h
  COL1A1 or LOX RNA levels: No change
[1]; 1μM
  qPCR COLIAI: 0.9946 and 1.0482 and 1.0167
  qPCRLOX: 1.068 and 1.006 and 0.9855
[1]; 10 µM
  qPCR COLIAI: 0.9655 and 0.9268 and 1.013
  qPCRLOX: 0.9777 and 0.8786 and 0.9515
[2]
  inhibition at 10 µM: -2%
[3]
  inhibition at 10 µM: 6%
[4]
  inhibition at 10 µM: 0%
[5]
  inhibition at 10 µM: 0%
[6]; 1 µM
  DHLNL: 143.775 and 329.16 and 113.02 and 83.13 and 359.48 and 365.16 and 104.82
  DPD: 2.93 and 49.66 and 7.64 and 1.83 and 44.6 and 15.94 and 5.96
  HLNL: 2792.14 and 4779.62 and 1377.5 and 1440.95 and 5514.92 and 6254.02 and 873.64
  HYP (hydroxyproline): did not reduce and 100208 and 1106205 and 113032 and 54746.7 and 1239040 and 1208884 and 155115
  PYD: 26.445 and 138.7 and 33.16 and 18.555 and 194.48 and 107.58 and 32.22
[6]; 10 µM
  DHLNL: 74.25 and 254.16 and 91.76 and 55.65 and 288.12 and 246.36 and 90.12
  DPD: 0 and 24.22 and 4.54 and 21.2 and 6.56 and 3.9
  HLNL: trend reduction and 1564.75 and 3443.58 and 1107.32 and 1868.37 and 4501.9 and 4758.54 and 846.68
  HYP (hydroxyproline): significantly (p = 0.0385) diminished and 52523.3 and 888147 and 121381 and 44633 and 1404421 and 949167 and 129547
  PYD: 5.86 and 65.12 and 17 and 7.95 and 92.68 and 46.62 and 20.6
[7]
  inhibition at 10 µM: 0%

## NC/C=C(\F)C(F)(F)S(=O)(=O)c1ccccc1 [PXS-6302]
[8]
  inhibition at 30 µM: 10%
